Type in all cases: functional
Assay [1] deals with Shigella flexneri. Nature of the assay: Antibacterial activity against Shigella flexneri after 24 hr by agar streak dilution method.
Assay [2] has as its system Proteus vulgaris. Kind of assay: Antibacterial activity against Proteus vulgaris after 24 hr by agar streak dilution method.
Assay [3] has as its system Salmonella typhi. Nature of the assay: Antibacterial activity against Salmonella enterica subsp. enterica serovar Typhi after 24 hr by agar streak dilution method.
Assay [4] deals with Klebsiella pneumoniae. Nature of the assay: Antibacterial activity against Klebsiella pneumoniae after 24 hr by agar streak dilution method.
Assay [5] relates to Candida albicans. Kind of assay: Antifungal activity against Candida albicans at 100 ug/disk after 48 hr by paper disk diffusion method. The following applies: read-out: IZ. Background: Agar diffusion results depend on both activity and mobility in agar.
In assay [6] the test system is Aspergillus clavatus. Kind of assay: Antifungal activity against Aspergillus clavatus at 100 ug/disc after 48 hr by paper disk diffusion method. The following applies: read-out: IZ.
The subject of assay [7] is Aspergillus fumigatus. Kind of assay: Antifungal activity against Aspergillus fumigatus at 100 ug/disc after 48 hr by paper disk diffusion method. As to conditions: read-out: IZ.
The subject of assay [8] is Aspergillus niger. Kind of assay: Antifungal activity against Aspergillus niger at 100 ug/disk after 48 hr by paper disk diffusion method. The following applies: read-out: IZ.
Assay [9] deals with Candida albicans. Kind of assay: Antifungal activity against Candida albicans after 48 hr by agar streak dilution method.
For assay [10], the system named is Aspergillus clavatus. Nature of the assay: Antifungal activity against Aspergillus clavatus after 48 hr by agar streak dilution method.
Assay [11] concerns Aspergillus niger. Kind of assay: Antifungal activity against Aspergillus niger after 48 hr by agar streak dilution method.
Assay [12] concerns Pseudomonas aeruginosa. Nature of the assay: Antibacterial activity against Pseudomonas aeruginosa after 24 hr by agar streak dilution method.
The subject of assay [13] is Escherichia coli. Kind of assay: Antibacterial activity against Escherichia coli after 24 hr by agar streak dilution method.
The test system of assay [14] is Shigella flexneri. Kind of assay: Antibacterial activity against Shigella flexneri at 100 ug/disc after 24 hr by paper disk diffusion method. The following applies: read-out: IZ.
The subject of assay [15] is Proteus vulgaris. Nature of the assay: Antibacterial activity against Proteus vulgaris at 100 ug/disk after 24 hr by paper disk diffusion method. As to conditions: read-out: IZ.
The subject of assay [16] is Salmonella typhi. Kind of assay: Antibacterial activity against Salmonella enterica subsp. enterica serovar Typhi at 100 ug/disk after 24 hr by paper disk diffusion method. As to conditions: read-out: IZ.
The test system of assay [17] is Klebsiella pneumoniae. Kind of assay: Antibacterial activity against Klebsiella pneumoniae at 100 ug/disk after 24 hr by paper disk diffusion method. The following applies: read-out: IZ.
In assay [18] the test system is Pseudomonas aeruginosa. Kind of assay: Antibacterial activity against Pseudomonas aeruginosa at 100 ug/disk after 24 hr by paper disk diffusion method. The following applies: read-out: IZ.
Assay [19] concerns Escherichia coli. Kind of assay: Antibacterial activity against Escherichia coli at 100 ug/disk after 24 hr by paper disk diffusion method. The following applies: read-out: IZ.
Assay [20] has as its system Bacillus subtilis. Nature of the assay: Antibacterial activity against Bacillus subtilis after 24 hr by agar streak dilution method.
For assay [21], the system named is Staphylococcus aureus. Kind of assay: Antibacterial activity against Staphylococcus aureus after 24 hr by agar streak dilution method.
For assay [22], the system named is Bacillus subtilis. Nature of the assay: Antibacterial activity against Bacillus subtilis at 100 ug/disk after 24 hr by paper disk diffusion method. As to conditions: read-out: IZ.
Assay [23] has as its system Staphylococcus aureus. Kind of assay: Antibacterial activity against Staphylococcus aureus at 100 ug/disc after 24 hr by paper disk diffusion method. The following applies: read-out: IZ.
Assay [24] deals with Aspergillus fumigatus. Kind of assay: Antifungal activity against Aspergillus fumigatus after 48 hr by agar streak dilution method.

In brackets after ≈: the same amount, converted by molar mass.

By MIC is commonly meant the smallest concentration in the dilution series that meets the test's criterion for growth inhibition. Low values mean greater potency, high ones weaker potency.

With `Cc1cc(=O)oc2cc(Oc3nc(Nc4ccc(N5C(=O)C(CN6CCN(c7ccccn7)CC6)SC5c5ccc(Cl)cc5)cc4)nc(N(C)C)n3)ccc12` (configuration not stated), the minimal inhibitory concentration (MIC) in the assay on Shigella flexneri [1] was found to be 6.25 µg/mL (≈ 8.05 µM); in the assay on Proteus vulgaris [2], 12.5 µg/mL (≈ 16.1 µM); against Salmonella typhi [3], 12.5 µg/mL (≈ 16.1 µM); against Klebsiella pneumoniae [4], 25 µg/mL (≈ 32.2 µM); in the assay on Candida albicans [9], 6.25 µg/mL (≈ 8.05 µM); with Aspergillus clavatus [10], 12.5 µg/mL (≈ 16.1 µM). Moreover, the MIC against Aspergillus niger [11] turned out to be 50 µg/mL (≈ 64.4 µM); with Pseudomonas aeruginosa [12] it was 50 µg/mL (≈ 64.4 µM); with Escherichia coli [13] it was 50 µg/mL (≈ 64.4 µM); in the assay with Bacillus subtilis [20] it was 50 µg/mL (≈ 64.4 µM); in the assay with Staphylococcus aureus [21], 25 µg/mL (≈ 32.2 µM); against Aspergillus fumigatus [24] it was 12.5 µg/mL (≈ 16.1 µM). For the same molecule, the zone of inhibition at 100 µg/disc turned out to be 26 mm in the assay on Candida albicans [5]; 25 mm with Aspergillus clavatus [6]; 21 mm with Aspergillus fumigatus [7]; 18 mm in the assay with Aspergillus niger [8]; 27 mm in the assay on Shigella flexneri [14]; 25 mm in the assay with Proteus vulgaris [15]. In addition, the zone of inhibition at 100 µg/disc in the assay on Salmonella typhi [16] was found to be 24 mm; in the assay with Klebsiella pneumoniae [17] it was 22 mm; with Pseudomonas aeruginosa [18], 18 mm; in the assay on Escherichia coli [19], 23 mm; with Bacillus subtilis [22], 18 mm; in the assay with Staphylococcus aureus [23] it was 21 mm.
With `Cc1cc(=O)oc2cc(Oc3nc(Nc4ccc(N5C(=O)CSC5c5ccc(Cl)cc5)cc4)nc(N(C)C)n3)ccc12` (configuration not stated), the MIC was found to be 12.5 µg/mL (≈ 20.8 µM) against Shigella flexneri [1]; 25 µg/mL (≈ 41.6 µM) with Proteus vulgaris [2]; 25 µg/mL (≈ 41.6 µM) with Salmonella typhi [3]; 50 µg/mL (≈ 83.2 µM) in the assay on Klebsiella pneumoniae [4]; 25 µg/mL (≈ 41.6 µM) with Candida albicans [9]; 25 µg/mL (≈ 41.6 µM) in the assay with Aspergillus clavatus [10]. Moreover, the MIC against Aspergillus niger [11] came to 100 µg/mL (≈ 166 µM); in the assay on Pseudomonas aeruginosa [12], 100 µg/mL (≈ 166 µM); against Escherichia coli [13], 50 µg/mL (≈ 83.2 µM); against Bacillus subtilis [20] it was 100 µg/mL (≈ 166 µM); against Staphylococcus aureus [21], 50 µg/mL (≈ 83.2 µM); with Aspergillus fumigatus [24], 50 µg/mL (≈ 83.2 µM). The zone of inhibition at 100 µg/disc is 22 mm in the assay on Candida albicans [5]; 21 mm with Aspergillus clavatus [6]; 18 mm in the assay on Aspergillus fumigatus [7]; 15 mm in the assay on Aspergillus niger [8]; 24 mm in the assay with Shigella flexneri [14]; 20 mm with Proteus vulgaris [15]. In addition, the zone of inhibition at 100 µg/disc with Salmonella typhi [16] came out at 21 mm; in the assay on Klebsiella pneumoniae [17], 18 mm; with Pseudomonas aeruginosa [18], 15 mm; in the assay on Escherichia coli [19] it was 20 mm; with Bacillus subtilis [22] it was 16 mm; in the assay with Staphylococcus aureus [23] it was 18 mm.
As for `Cc1cc(=O)oc2cc(Oc3nc(Nc4ccc(/N=C/c5cccc(F)c5)cc4)nc(N(C)C)n3)ccc12`, the MIC with Shigella flexneri [1] turned out to be 50 µg/mL (≈ 97.9 µM); in the assay on Proteus vulgaris [2], 100 µg/mL (≈ 196 µM); in the assay with Salmonella typhi [3], 25 µg/mL (≈ 49 µM); against Klebsiella pneumoniae [4] it was 50 µg/mL (≈ 97.9 µM); in the assay on Candida albicans [9], 100 µg/mL (≈ 196 µM); against Aspergillus clavatus [10], 50 µg/mL (≈ 97.9 µM). For the same molecule, the minimum inhibitory concentration (MIC) against Aspergillus niger [11] was 50 µg/mL (≈ 97.9 µM); in the assay on Pseudomonas aeruginosa [12], 100 µg/mL (≈ 196 µM); in the assay on Escherichia coli [13], 50 µg/mL (≈ 97.9 µM); with Bacillus subtilis [20], 50 µg/mL (≈ 97.9 µM); with Staphylococcus aureus [21] it was 100 µg/mL (≈ 196 µM); against Aspergillus fumigatus [24] it was 100 µg/mL (≈ 196 µM). Besides, the zone of inhibition at 100 µg/disc is 13 mm in the assay on Candida albicans [5]; 17 mm with Aspergillus clavatus [6]; 14 mm in the assay on Aspergillus fumigatus [7]; 18 mm in the assay with Aspergillus niger [8]; 19 mm in the assay on Shigella flexneri [14]; 14 mm with Proteus vulgaris [15]. Also, the zone of inhibition at 100 µg/disc in the assay with Salmonella typhi [16] amounted to 18 mm; in the assay on Klebsiella pneumoniae [17], 16 mm; with Pseudomonas aeruginosa [18] it was 17 mm; in the assay with Escherichia coli [19] it was 20 mm; in the assay on Bacillus subtilis [22] it was 16 mm; in the assay with Staphylococcus aureus [23] it was 13 mm.

The values are drawn from ChEMBL document CHEMBL3046897, “Synthesis of 3-{4-[4-dimethylamino-6-(4-methyl-2-oxo-2H-chromen-7-yloxy)-[1,3,5]triazin-2-ylamino]-phenyl}-2-phenyl-5-(4-pyridin-2-yl-piperazin-1-ylmethyl)-thiazolidin-4-one and their biological evaluation” (2012).
